Results: patent US20240360166A1, “SALTS AND SOLID FORMS OF A COMPOUND HAVING GLP-1 AGONIST ACTIVITY” (Gasherbrum Bio, Inc., priority 2022, published 2024)
“Also recorded” adds a separate entry of the source.

Legend:
[1] = Solid stability evaluation of free acid Form A, Na salt Form A and L-arginine salt Form A, 2 weeks (Table 5-5); assay type: physicochemical; conditions: for Form change: XRPD
[2] = Kinetic solubility in water, pH buffers and bio-relevant media at 37° C. (Table 5-6); assay type: physicochemical; conditions: for pH: pH of solubility sample; for XRPD: residual solids
Description: Around 10 mg material was weighed into 5 mL water, buffer solution, SGF, FaSSIF or FeSSIF^1 followed by rolling at 25 rpm at 37° C. for 0.5 and 1 h. At each time point, around 0.8 mL suspension was sampled out for centrifugation and filtration. Solids were tested by XRPD.

[3] = Hygroscopicity, DVS evaluation of free acid Form A and re-prepared salts (Table 5-7); assay type: physicochemical; conditions: for Form change after DVS: XRPD after DVS, * converted to a potential isomorphic hydrate by XRPD
Description: XRPD characterization was performed for the samples after DVS test.
DVS was measured via a SMS (Surface Measurement Systems) DVS Intrinsic. The relative humidity at 25° C. were calibrated against deliquescence point of LiCl, Mg(NO3)2 and KCl.

[4] = Dog pharmacokinetic study, Free Acid Form A, sodium salt Form A, L-arginine salt Form A in oral HPMC capsule (Table 8-5); assay type: in vivo; conditions: 2 mg/kg, male Beagle dogs
Description: The objective of this study was to characterize the pharmacokinetics (PK) of Compound I in male Beagle dogs after oral (PO) or IV administration. […] The dose was administered orally by gavage to dogs. […] The plasma concentration of Compound I was determined by liquid chromatography with mass spectrometric detection (LC-MS/MS).

[5] = 25° C./92.5% RH, open container, 2 weeks
[6] = 40° C./75% RH, open container, 2 weeks
[7] = 60° C., tight container, 2 weeks
[8] = 50 mM acetate buffer (4.5), 0.5 h, 37° C.
[9] = alkaline borate buffer (8), 0.5 h, 37° C.
[10] = alkaline borate buffer (8), 1.0 h, 37° C.

Substance: 3-((1S,2S)-1-(2-((S)-3-(3-(4-(diethylphosphoryl)-3-(methylamino)phenyl)-2-oxo-2,3-dihydro-1H-imidazol-1-yl)-2-(4-fluoro-3,5-dimethylphenyl)-4-methyl-4,5,6,7-tetrahydro-2H-pyrazolo[4,3-c]pyridine-5-carbonyl)-5-(tetrahydro-2H-pyran-4-yl)-1H-indol-1-yl)-2-methylcyclopropyl)-1,2,4-oxadiazol-5(4H)-one sodium salt Form A [Compound I sodium salt Form A]
- Chemical and physical stability ([1]; 25° C./92.5% RH open, 40° C./75% RH open, 60° C. tight container, over 2 weeks, listed as Na salt Form A): chemically stable in these conditions but physically unstable at 25° C./92.5% RH and 40° C./75% RH
- Color Change [1, 5]: No
- HPLC purity (%) [1, 5]: 99.1%
- HPLC purity/initial (%) [1, 5]: >100%
- Form change ([1]; 25° C./92.5% RH, open container, 2 weeks, * Likely isomorphic hydrate): Yes*
- Color Change [1, 6]: No
- HPLC purity (%) [1, 6]: 99.1%
- HPLC purity/initial (%) [1, 6]: >100%
- Form change ([1]; 40° C./75% RH, open container, 2 weeks, * Likely isomorphic hydrate): Yes*
- Color Change [1, 7]: No
- HPLC purity (%) [1, 7]: 99.1%
- HPLC purity/initial (%) [1, 7]: >100%
- Form change [1, 7]: No
- HPLC purity (%) ([1]; Initial): 99.0%
- Solubility ([2]; 50 mM acetate buffer (4.5), 0.5 h, 37° C., LOQ = 0.500 μg/mL): <LOQ
- pH [2, 8]: (4.60)
- XRPD [2, 8]: AF^2
- Solubility ([2]; 50 mM acetate buffer (4.5), 1.0 h, 37° C., LOQ = 0.500 μg/mL): <LOQ
- pH ([2]; 50 mM acetate buffer (4.5), 1.0 h, 37° C.): (4.55)
- Solubility ([2]; 0.1N HCl (1.2), 0.5 h, 37° C., LOQ = 0.500 μg/mL): <LOQ
- pH ([2]; 0.1N HCl (1.2), 0.5 h, 37° C.): (0.95)
- Solubility ([2]; 0.1N HCl (1.2), 1.0 h, 37° C., LOQ = 0.500 μg/mL): <LOQ
- pH ([2]; 0.1N HCl (1.2), 1.0 h, 37° C.): (1.06)
- XRPD ([2]; 0.1N HCl (1.2), 1.0 h, 37° C.): AF^1
- Kinetic solubility, comparison between forms ([2]; 37° C., 0.5 and 1 h): higher than that of L-arginine salt Form A
- Solubility ([2]; FaSSIF (6.5), 0.5 h, 37° C.): 9.1 µg/mL
- pH ([2]; FaSSIF (6.5), 0.5 h, 37° C.): (6.53)
- XRPD ([2]; FaSSIF (6.5), 0.5 h, 37° C.): AF^3
- Solubility ([2]; FaSSIF (6.5), 1.0 h, 37° C.): 10.2 µg/mL
- pH ([2]; FaSSIF (6.5), 1.0 h, 37° C.): (6.60)
- XRPD ([2]; FaSSIF (6.5), 1.0 h, 37° C.): AF^3
- Solubility ([2]; FeSSIF (5.0), 0.5 h, 37° C.): 42.7 µg/mL
- pH ([2]; FeSSIF (5.0), 0.5 h, 37° C.): (4.98)
- Solubility ([2]; FeSSIF (5.0), 1.0 h, 37° C.): 40.9 µg/mL
- pH ([2]; FeSSIF (5.0), 1.0 h, 37° C.): (5.06)
- XRPD ([2]; FeSSIF (5.0), 1.0 h, 37° C.): AF^1
- Solubility ([2]; H2O, 0.5 h, 37° C.): 1907.0 µg/mL
- pH ([2]; H2O, 0.5 h, 37° C.): (8.50)
- Solubility ([2]; H2O, 1.0 h, 37° C.): 1742.2 µg/mL
- pH ([2]; H2O, 1.0 h, 37° C.): (8.34)
- Solubility ([2]; SGF (2.0), 0.5 h, 37° C.): 14.2 µg/mL
- pH ([2]; SGF (2.0), 0.5 h, 37° C.): (2.13)
- XRPD ([2]; SGF (2.0), 0.5 h, 37° C.): AF^1
- Solubility ([2]; SGF (2.0), 1.0 h, 37° C.): 15.8 µg/mL
- pH ([2]; SGF (2.0), 1.0 h, 37° C.): (2.17)
- XRPD ([2]; SGF (2.0), 1.0 h, 37° C.): AF^1
- Solubility [2, 9]: 179.0 µg/mL
- pH [2, 9]: (7.99)
- XRPD [2, 9]: AF^3
- Solubility [2, 10]: 164.2 µg/mL
- pH [2, 10]: (7.99)
- XRPD [2, 10]: AF^3
- Disproportionation after solubility study (XRPD) ([2]; solids after kinetic solubility test): disproportionation was observed
- Water uptake (@ 25° C./40-95% RH) ([3]; DVS, 25° C., 40-95% RH): 10.4%
- Form change after DVS ([3]; listed as Compound I Na salt Form A): converted to a new form; also recorded: form change was observed
- Form change after DVS ([3]; listed as Na salt Form A): Yes*
- Tmax (median) [4]: 2.0 h
- Tmax (range) [4]: [1.0-2.0] h
- Cmax ([4]; mean): 64.1 ng/mL
- AUClast ([4]; mean, t = 8 h): 198 h*ng/m:
